Source: patent publication US20130261173A1, “CYCLODEXTRIN-BASED POLYMERS FOR THERAPEUTIC DELIVERY” (CERULEAN PHARMA INC., priority 2009, published 2013)
“And” between values parts separate entries of the source, which are not always exact repeats. Equal entries are not always repeated. Where two headings read alike, the source gives them in different places.

Tests used:
B16.F10 cells [1] = experiment: CellTiter-Glo Luminescent Cell Viability Assay (cytotoxicity); type: cell-based, murine
Method: To measure the cytotoxic effect of CDP-linker-docetaxel compounds, the CellTiter-Glo Luminescent Cell Viability Assay (CTG) was used. […] B16.F10 cells, grown to 85-90% confluency in 150 cm2 flasks (passage <30), were resuspended in media (MEM-alpha, 10% HI-FBS, 1×antibiotic-antimycotic solution) and added to 96-well opaque-clear bottom plates at a concentration of 1500 cells/well in 200 μL/well. The cells were incubated at 37° C. with 5% CO2 for 24 hours. The following day, serial dilutions of 2× concentrated particles and 2× concentrated free drug were made in 12-well reservoirs with media to specified concentrations. The media in the plates was replaced with […], of fresh media and 100 μL of the corresponding serially diluted drug. Three sets of plates were prepared with duplicate treatments. Following 24, 48 and 72 hours of incubation at 37° C. with 5% CO2, the media in the plates was replaced with 100 μL of fresh media and 100 μL of CTG solution, and then incubated for 5 minutes on a plate shaker at room temperature set to 450 rpm and allowed to rest for 15 minutes. Viable cells were measured by luminescence using a microtiter plate reader. The data was plotted as % viability vs. concentration and standardized to untreated cells.

[2] = Tolerability in the murine melanoma model (body weight); type: in vivo, male C57BL/6 mice
Method: The treatments were administered IV into the tail vein at a dose volume of 10 mL/kg, beginning on post-implantation day 5, when the mean tumor volume was ca. 60 mm^3. Animals were monitored for any morbidity and adverse effect three times a week. In addition, body weight and tumor volume were also measured three times a week.
Tolerability was determined by changes in body weight, expressed as a percent of the initial body weight on post-implantation day 5. Health monitoring was conducted three times a week to evaluate lethargy, tremors, hypothermia, ataxia, hind limb paralysis etc. The criteria at which a mouse was removed from the study were >20% body weight loss or severe morbidity or hind limb paralysis.

B16.F10 cells [3] = experiment: Efficacy in a murine melanoma model (subcutaneous B16.F10 tumors); type: in vivo, male C57BL/6 mice
Method: Animals were monitored for any morbidity and adverse effect three times a week.
Tumor volume was calculated with a (width×width×length)/2 mm^3 formula.

[4] = 15 mg/kg IV, three injections over 2 weeks (twice per week)
[5] = 15 mg/kg IV, weekly schedule for 3 injections
[6] = 30 mg/kg IV, biweekly schedule for 2 injections
[7] = 30 mg/kg IV, weekly schedule for 3 injections (study of 1.4, 2.3, 4.2, 5.2)
[8] = 30 mg/kg IV, weekly schedule for 3 injections (study of 1.5)
[9] = 15 mg/kg IV, three injections over 2 weeks (twice per week), listed as free docetaxel

## CDP-2′-alanine glycolate-docetaxel [CDP-Ala Gly-DTX formulation]
B16.F10 cells [1]
  IC50: 0.4 to 2 nM

## CDP-2′-glycine-docetaxel [CDP-Gly-DTX formulation]
B16.F10 cells [1]; B16.F10 cells, 72 hours after treatment
  IC50: 1.2 to 3.7 nM

## CC(=O)O[C@@]12CO[C@@H]1C[C@H](O)[C@@]1(C)C(=O)[C@H](O)C3=C(C)[C@@H](OC(=O)[C@H](O)[C@@H](NC(=O)OC(C)(C)C)c4ccccc4)C[C@@](O)([C@@H](OC(=O)c4ccccc4)[C@H]21)C3(C)C [Free docetaxel, docetaxel, reference compound]
B16.F10 cells [1]; Mus musculus, B16.F10 cells, 72 hours after treatment
  IC50: 0.2 to 2 nM
[2]; [4]
  Maximum body weight loss (%): 3%
[2]; [5]
  Maximum body weight loss (%): 0%
[2]; [6]
  Maximum body weight loss (%): 5%
[2]; [7]
  Maximum body weight loss (%): 8%
[2]; [8]
  Maximum body weight loss (%): 12%
B16.F10 cells [3]; [4]
  Tumor growth delay (TGD): 15 days
  Tumor growth inhibition (% TGI): 97%
  increase in TGD: 79%
B16.F10 cells [3]; [9]
  Tumor growth inhibition (% TGI): 97%
  day the mean tumor volume endpoint (≧3000 mm^3) was reached: 34 days and 35 days
B16.F10 cells [3]; 15 mg/kg IV, three injections over 2 weeks, day 33
  survival: 50%
B16.F10 cells [3]; 15 mg/kg IV, three injections over 2 weeks, day 40
  survival: 0%
B16.F10 cells [3]; [5]
  Tumor growth delay (TGD): 7 days
  Tumor growth inhibition (% TGI): 68%
  day the mean tumor volume endpoint (≧3000 mm^3) was reached: 26 days
  increase in TGD: 37%
B16.F10 cells [3]; 15 mg/kg IV, weekly schedule for 3 injections, listed as free docetaxel
  Tumor growth inhibition (% TGI): 68%
B16.F10 cells [3]; 30 mg/kg IV, biweekly for 2 injections, day 24
  survival: 50%
B16.F10 cells [3]; 30 mg/kg IV, biweekly for 2 injections, day 31
  survival: 0%
B16.F10 cells [3]; [6]
  Tumor growth delay (TGD): 7 days
  Tumor growth inhibition (% TGI): 73%
  day the mean tumor volume endpoint (≧3000 mm^3) was reached: 26 days
B16.F10 cells [3]; 30 mg/kg IV, biweekly schedule for 2 injections, listed as free docetaxel
  Tumor growth inhibition (% TGI): 73%
B16.F10 cells [3]; 30 mg/kg IV, weekly for 3 injections (study of 1.4, 2.3, 5.2), day 29
  survival: 50%
B16.F10 cells [3]; 30 mg/kg IV, weekly for 3 injections (study of 1.4, 2.3, 5.2), day 38
  survival: 0%
B16.F10 cells [3]; 30 mg/kg IV, weekly for 3 injections (study of 1.5), day 40
  survival: 50%
B16.F10 cells [3]; 30 mg/kg IV, weekly for 3 injections (study of 1.5), day 45
  survival: 0%
B16.F10 cells [3]; [7]
  Tumor growth delay (TGD): 12 days
  day the mean tumor volume endpoint (≧3000 mm^3) was reached: 31 days
  increase in TGD: 63%
B16.F10 cells [3]; [8]
  Tumor growth delay (TGD): 21 days
  day the mean tumor volume endpoint (≧3000 mm^3) was reached: 41 days
  increase in TGD: 105%

## CDP-dithiolethyloxy-carbonate-docetaxel [CDP-ethane-S—S-ethane-DTX formulation]
B16.F10 cells [1]
  IC50: 23 nM
[2]; [5]
  Maximum body weight loss (%): 0%
[2]; [7]
  Maximum body weight loss (%): 0%
B16.F10 cells [3]; mouse, in vivo
  day the mean tumor volume endpoint (≧3000 mm^3) was reached: 21 days and 24 days

## CDP-2′-aminoethoxyethoxy-Docetaxel [CDP-aminoethoxyethoxy-DTX formulation]
[2]; [5]
  Maximum body weight loss (%): 7%
[2]; [7]
  Maximum body weight loss (%): 23%

## CDP-2′-hexanoate-docetaxel [CDP-Hex-DTX formulation]
B16.F10 cells [1]
  IC50: 325 to 440 nM
B16.F10 cells [3]; mouse, in vivo
  Tumor growth delay (TGD): 10 days
  Tumor growth inhibition (% TGI): 66%
  increase in TGD: 53%
